Test results reported in patent US8729056B2, “Preventive and/or therapeutic agent of hand-foot syndrome” (Ono Pharmaceutical Co., Ltd., priority 2010, dated 2014).

Experiments:
[1] = sweat from patients with Hand-Foot Syndrome administered the drug; cited from earlier work
[2] = system: Hand-Foot Syndrome; conditions: patients with highest Hand-Foot Syndrome grade of 3; on average; Phase 2 clinical study in Japan; cited from earlier work
[3] = WO1999/58478; cited from earlier work
[4] = system: Hand-Foot Syndrome caused by sorafenib tosilate administration; assay: Cases 3-6: effect of anticholinergic drugs on Hand-Foot Syndrome caused by sorafenib tosilate in kidney cancer patients; assay type: in vivo, human
Description: (§1) In the present invention, the preventive and/or treatment effect of the anticholinergic drug against Hand-Foot Syndrome can be evaluated, for example, by the criteria of Hand-Foot Syndrome in Table 1, Table 2, and Table 3 as shown below. Table 1 is the criteria proposed by Blum, and appeared on page 485-493 in volume 17 of Journal Clinical Oncology published in 1999. Grade 0 is not referred to in this table, but it is understood as grade 0 if no symptom is observed. Table 2 is the National Cancer Institute-Common Toxicity Criteria Version 2.0 (NCI-CTC v2.0), and Table 3 is the National Cancer Institute-Common Terminology Criteria for Adverse Events Version 3.0 (NCI-CTCAE v3.0). Grade 0 is also not referred to in Table 3, but it is understood as grade 0 if no symptom is observed.
We examined the effect of imidafenacin in a patient with kidney cancer who developed Hand-Foot Syndrome caused by sorafenib tosilate administration (sorafenib 800 mg/day).
We examined the effect of imidafenacin in a patient with kidney cancer who developed Hand-Foot Syndrome caused by sorafenib tosilate administration.
From this point, Imidafenacin 0.1 mg was orally administered to the patient twice a day in addition to the urea ointment.
We examined the effect of solifenacin succinate in a patient with kidney cancer who developed Hand-Foot Syndrome caused by sorafenib tosilate administration (sorafenib 800 mg/day).
We examined the effect of tolterodine tartrate in a patient with kidney cancer who developed Hand-Foot Syndrome caused by sorafenib tosilate administration.

[5] = compared with tolterodine; Pharmacology and Toxicology Vol. 81, 1997; cited from earlier work
[6] = system: Hand-Foot Syndrome caused by sunitinib malate administration; assay: Case 2: effect of imidafenacin on Hand-Foot Syndrome caused by sunitinib malate in a kidney cancer patient; assay type: in vivo, human; conditions: imidafenacin combined with urea ointment, heparinoid ointment and clobetasol propionate ointment, after eight days of such treatment
Description: as §1

COc1cccc2c1C(=O)c1c(O)c3c(c(O)c1C2=O)C[C@@](O)(C(=O)CO)C[C@@H]3O[C@H]1C[C@H](N)[C@H](O)[C@H](C)O1 [doxorubicin]
drug substance in sweat [1]: detected

CNC(=O)c1cc(Oc2ccc(NC(=O)Nc3ccc(Cl)c(C(F)(F)F)c3)cc2)ccn1 [sorafenib tosilate]
drug substance in sweat [1]: not detected

CCCCCOC(=O)Nc1nc(=O)n([C@@H]2O[C@H](C)[C@@H](O)[C@H]2O)cc1F [capecitabine]
period for recovery of Hand-Foot Syndrome after interruption [2]: about two to three

CC(C)C(=O)Oc1ccc(CO)cc1[C@H](CCN(C(C)C)C(C)C)c1ccccc1 [Fesoterodine, 2-[(1R)-3-(dipropan-2-ylamino)-1-phenylpropyl]-4-(hydroxymethyl)phenyl 2-methylpropanoate]
metabolism after oral administration [3]: rapidly is metabolized to the 5-hydroxymethyl derivative

Cc1ncc(CO)c(CO)c1O.Cl [pyridoxine hydrochloride]
change of Hand-Foot Syndrome ([4]; case 6, grade 3, urea ointment in addition to pyridoxine hydrochloride, sorafenib 800 mg/day, without tolterodine tartrate): no improvements

Cc1nc(-c2ccccc2)nc(SCc2ccc(Cl)cc2)c1CO [5-hydroxymethyl derivative]
anticholinergic activity [5]: equivalent to tolterodine

O=C(O[C@H]1CN2CCC1CC2)N1CCc2ccccc2[C@@H]1c1ccccc1 [solifenacin succinate, (3R)-1-Azabicyclo[2.2.2]oct-3-yl(1S)-1-phenyl-3,4-dihydroisoquinoline-2(1H)-carboxylate]
recurrence of Hand-Foot Syndrome ([4]; case 5, continuous administration of solifenacin succinate after full recovery): prevented
recovery from Hand-Foot Syndrome ([4]; case 5, solifenacin succinate 5 mg orally once a day, started at grade 2, 28 days after beginning): full recovery

Cc1nccn1CCC(C(N)=O)(c1ccccc1)c1ccccc1 [imidafenacin, 4-(2-Methyl-1H-imidazole-1-yl)-2,2-diphenylbutanamide]
recovery from Hand-Foot Syndrome [6]: full recovery
recurrence of Hand-Foot Syndrome ([4]; case 3, after full recovery, continuous administration of imidafenacin and the moisturizing agent): prevented
recovery from Hand-Foot Syndrome ([4]; case 3, imidafenacin continued in combination with heparinoid cream, after 22 days): full recovery
